The record followed here is patent publication US7829589B2, “Sulfonamide compounds and uses thereof” (Elixir Pharmaceuticals, Inc., priority 2005, dated 2010).

One may read the Ki as a dissociation constant, usually derived from enzyme kinetics or from competition with a known ligand.

Where only a bound is given, the exact number is not on record here.

GHS-R, sequence (Q92847 whole entry, species assumed): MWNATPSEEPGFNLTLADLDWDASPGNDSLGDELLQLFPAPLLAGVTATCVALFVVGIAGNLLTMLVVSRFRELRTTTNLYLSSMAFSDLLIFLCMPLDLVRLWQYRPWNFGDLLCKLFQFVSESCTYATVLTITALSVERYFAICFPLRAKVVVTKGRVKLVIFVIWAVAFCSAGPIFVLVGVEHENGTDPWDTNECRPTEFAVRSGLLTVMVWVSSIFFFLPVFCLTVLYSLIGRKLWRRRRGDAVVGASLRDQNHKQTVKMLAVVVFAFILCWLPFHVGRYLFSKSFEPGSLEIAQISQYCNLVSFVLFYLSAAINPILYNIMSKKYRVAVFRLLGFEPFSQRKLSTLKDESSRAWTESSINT

The assay addresses GHS-R (Homo sapiens, UniProt Q92847). Put plainly: GHS-R antagonist activity (Ki) in a cell based assay. Here is the method:
Cell-Based Activity Assays. For example, the ability of the compound to modulate accumulation of a second messenger signaling component downstream of GHS-R can be evaluated. For example, inositol phosphates (IP), as a result of Gq signaling in a mammalian cell, e.g., a Cos-7 cells. Other tissue culture cells, Xenopus oocytes, and primary cells can also be used.
Phosphatidylinositol turnover assay. One day after transfection COS-7 cells are incubated for 24 hours with 5 μCi of [^3H]-myo-inositol in 1 ml medium supplemented with 10% fetal calf serum, 2 mM glutamine and 0.01 mg/ml gentamicin per well. Cells are then washed twice in buffer, 20 mM HEPES, pH 7.4, supplemented with 140 mM NaCl, 5 mM KCl, 1 mM MgSO4, 1 mM CaCl2, 10 mM glucose, 0.05% (w/v) bovine serum; and incubated in 0.5 ml buffer supplemented with 10 mM LiCl at 37° C. for 30 min. For some assays, it is also useful to incubate the cells with adenosine deaminase ADA (200 U/mg, Boehringer Mannheim, Germany) for 30 min in a concentration of 1 U/ml.
After incubation with the compound of interest for 45 min at 37° C., cells are extracted with 10% ice-cold perchloric acid and placed on ice for 30 min. The resulting supernatants are neutralized with KOH in HEPES buffer, and [^3H]-inositol phosphate is purified on Bio-Rad AG 1-X8 anion exchange resin as described. Assays can be run in duplicate, triplicate, etc. […]
As to `CCN(CC)CCCS(=O)(=O)NC(C)(C)c1nc(Cc2ccc(Br)cc2)no1` [Compound 154, 3-Diethylamino-propane-1-sulfonic acid {1-[3-(4-bromo-benzyl)-[1,2,4]oxadiazol-5-yl]-1-methyl-ethyl}-amide], the Ki is less than 100 nM.
Compound `CCN(CC)CCCS(=O)(=O)N[C@H](CC(N)=O)c1nc(Cc2ccc(Br)cc2)no1` [Compound 102, (R)-3-[3-(4-Bromo-benzyl)-[1,2,4]oxadiazol-5-yl]-3-(3-diethylamino-propane-1-sulfonylamino)-propionamide] showed a Ki of 100 to 500 nM.
`CCN(CC)CCCS(=O)(=O)NC(C)(C)c1nc(-c2ccc(OC)cc2)no1` [Compound 155, 3-Diethylamino-propane-1-sulfonic acid {1-[3-(4-methoxy-phenyl)-[1,2,4]oxadiazol-5-yl]-1-methyl-ethyl}-amide] yielded an inhibitory constant (Ki) of 100 to 500 nM.
In turn, `CCN(CC)CCCS(=O)(=O)N[C@H](CCc1ccccc1)c1nc(Cc2cc(F)cc(F)c2)n[nH]1` [Compound 132, 3-Diethylamino-propane-1-sulfonic acid {(R)-1-[5-(3,5-difluoro-benzyl)-2H-[1,2,4]triazol-3-yl]-3-phenyl-propyl}-amide] showed a Ki of less than 100 nM.
Compound `CCN(CC)CCCS(=O)(=O)N[C@H](CCc1ccccc1)c1nc(-c2ccc(C#N)c(Cl)c2)n[nH]1` [Compound 126, 3-Diethylamino-propane-1-sulfonic acid {(R)-1-[5-(3-chloro-4-cyano-phenyl)-2H-[1,2,4]triazol-3-yl]-3-phenyl-propyl}-amide] showed a Ki of less than 100 nM.
The compound `CCN(CC)CCCS(=O)(=O)N[C@H](CCc1ccccc1)c1nc(-c2cccc(C)c2)n[nH]1` [Compound 61, 3-Diethylamino-propane-1-sulfonic acid [(R)-3-phenyl-1-(5-m-tolyl-2H-[1,2,4]triazol-3-yl)-propyl]-amide] registered a Ki of less than 100 nM.
`CCN(CC)CCCS(=O)(=O)N[C@@H](CCc1ccccc1)c1nc(-c2ccccc2C)no1` [Compound 21, 3-Diethylamino-propane-1-sulfonic acid [(S)-3-phenyl-1-(3-o-tolyl-[1,2,4]oxadiazol-5-yl)-propyl]-amide] yielded a Ki of 100 to 500 nM.
Then `CCN(CC)CCCS(=O)(=O)N[C@H](COCc1ccccc1)c1nc(-c2ccccc2C)no1` [Compound 33, 3-Diethylamino-propane-1-sulfonic acid [(R)-2-benzyloxy-1-(3-o-tolyl-[1,2,4]oxadiazol-5-yl)-ethyl]-amide], with no less than 1000 nM; and `CCN(CC)CCS(=O)(=O)N[C@H](CCc1ccccc1)c1nc(-c2ccc(C)cc2)no1` [Compound 86, 2-Diethylamino-ethanesulfonic acid [(R)-3-phenyl-1-(3-p-tolyl-[1,2,4]oxadiazol-5-yl)-propyl]-amide], with 100 to 500 nM; and `CCN(CC)CCS(=O)(=O)N[C@H](CCc1ccccc1)c1nc(Cc2ccccc2C)no1` [Compound 87, 2-Diethylamino-ethanesulfonic acid {(R)-1-[3-(2-methyl-benzyl)-[1,2,4]oxadiazol-5-yl]-3-phenyl-propyl}-amide], with 100 to 500 nM.
For `CCN(CC)CCS(=O)(=O)N[C@H](CCc1ccccc1)c1nc(-c2ccccc2C)no1` [Compound 13, 2-Diethylamino-ethanesulfonic acid [(R)-3-phenyl-1-(3-o-tolyl-[1,2,4]oxadiazol-5-yl)-propyl]-amide] the value was 500 to 1000 nM; for `CCN(CC)CCS(=O)(=O)N[C@H](CCc1ccccc1)c1nc(-c2c(OC)cccc2OC)no1` [Compound 46, 2-Diethylamino-ethanesulfonic acid {(R)-1-[3-(2,6-dimethoxy-phenyl)-[1,2,4]oxadiazol-5-yl]-3-phenyl-propyl}-amide], 100 to 500 nM; for `CCN(CC)CCCS(=O)(=O)N[C@H](CCc1ccccc1)c1nc(-c2c(F)cc(F)cc2F)n[nH]1` [Compound 8, 3-Diethylamino-propane-1-sulfonic acid {(R)-3-phenyl-1-[5-(2,4,6-trifluoro-phenyl)-2H-[1,2,4]triazol-3-yl]-propyl}-amide], less than 100 nM.
`CCN(CC)CCCS(=O)(=O)N[C@H](CCc1ccccc1)c1nc(-c2ccc(F)cc2F)n[nH]1` [Compound 96, 3-Diethylamino-propane-1-sulfonic acid {(R)-1-[5-(2,4-difluoro-phenyl)-2H-[1,2,4]triazol-3-yl]-3-phenyl-propyl}-amide] showed a Ki of less than 100 nM.
Compound `CCN(CC)CCCS(=O)(=O)N[C@H](CCc1ccccc1)c1nc(-c2ccc(OC)nc2)n[nH]1` [Compound 138, 3-Diethylamino-propane-1-sulfonic acid {(R)-1-[5-(6-methoxy-pyridin-3-yl)-2H-[1,2,4]triazol-3-yl]-3-phenyl-propyl}-amide] registered a Ki of less than 100 nM.
As to `CCN(CC)C1CCC(S(=O)(=O)N[C@H](CCc2ccccc2)c2nnc(-c3ccc(F)cc3)[nH]2)CC1` (stereo partly drawn) [Compound 35, 4-Diethylamino-cyclohexanesulfonic acid {(R)-1-[5-(4-fluoro-phenyl)-4H-[1,2,4]triazol-3-yl]-3-phenyl-propyl}-amide], the Ki lay within 100 to 500 nM.
As for `CCN(CC)CCCS(=O)(=O)N[C@@H](CC(C)C)c1nc(-c2ccc(OC)cc2)n[nH]1` [Compound 159, (S)-3-Diethylamino-propane-1-sulfonic acid {1-[5-(4-methoxy-phenyl)-2H-[1,2,4]triazol-3-yl]-3-methyl-butyl}-amide], the Ki was 100 to 500 nM.
In the case of `CCN(CC)CCCS(=O)(=O)N[C@H](CCc1ccccc1)c1nc(Cc2ccccc2)no1` [Compound 116, 3-Diethylamino-propane-1-sulfonic acid [(R)-1-(3-benzyl-[1,2,4]oxadiazol-5-yl)-3-phenyl-propyl]-amide], the Ki lay in the range of 100 to 500 nM.
Take `CCN(CC)CCCS(=O)(=O)N[C@H](CCc1ccccc1)c1nc(-c2cccnc2Cl)no1` [Compound 31, 3-Diethylamino-propane-1-sulfonic acid {(R)-1-[3-(2-chloro-pyridin-3-yl)-[1,2,4]oxadiazol-5-yl]-3-phenyl-propyl}-amide]: the Ki is less than 100 nM.
`CCN(CC)CCCS(=O)(=O)N1CCC[C@H]1c1nc(-c2ccc(OC)cc2)no1` [Compound 143, (S)-Diethyl-(3-{2-[3-(4-methoxy-phenyl)-[1,2,4]oxadiazol-5-yl]-pyrrolidine-1-sulfonyl}-propyl)-amine] had a Ki of 100 to 500 nM.
Compound `CCN(CC)CCCS(=O)(=O)NCc1nc(Cc2ccc(Cl)cc2)n[nH]1` [Compound 157, 3-Diethylamino-propane-1-sulfonic acid [5-(4-chloro-benzyl)-2H-[1,2,4]triazol-3-ylmethyl]-amide] displayed a Ki of 100 to 500 nM.
`CCN(CC)CCCS(=O)(=O)N[C@H](CCc1ccccc1)c1nc(Cc2ccc(OC)cc2)n[nH]1` [Compound 107, 3-Diethylamino-propane-1-sulfonic acid {(R)-1-[5-(4-methoxy-benzyl)-2H-[1,2,4]triazol-3-yl]-3-phenyl-propyl}-amide] had a Ki of 100 to 500 nM.
`CCN(CC)CCCS(=O)(=O)N[C@H](CCc1ccccc1)c1nc(-c2ccc(O)cc2)n[nH]1` [Compound 120, 3-Diethylamino-propane-1-sulfonic acid {(R)-1-[5-(4-hydroxy-phenyl)-2H-[1,2,4]triazol-3-yl]-3-phenyl-propyl}-amide]: the Ki is less than 100 nM.
